{
  "source": "patent US20210130401A1",
  "about": "“PEPTIDOMIMETIC INHIBITORS OF THE WDR5-MLL INTERACTION” (THE REGENTS OF THE UNIVERSITY OF MICHIGAN, priority 2017, published 2021)",
  "note": "Starred links: 1 amine or outer side, 2 acyl side, 3 side chain; linkers in the order of their positions; H or OH if unused. Positions of bridges follow the written chain, without caps; N, C: chain ends. Non-standard residues stand in square brackets, D forms with d. Residues, ends and D or L forms follow the SMILES beside them. *: point of attachment. dαMeDab = C[C@](CCN[*:3])(N[*:1])C(=O)[*:2]; Arg(ω-nPr) = CCCNC(=N)NCCC[C@H](N)C(=O)O; dCha = N[C@H](CC1CCCCC1)C(=O)O; dPhg = N[C@@H](C(=O)O)c1ccccc1; Isobutyryl = CC(C)C(=O)*; Orn = NCCC[C@H](N)C(=O)O; Abu = CC[C@H](N)C(=O)O; Acryloyl = C=CC(=O)*",
  "data": [
    {"test_system": "MOLM-13 leukemia cells carrying MLL-AF9 fusion", "test": "cell viability assay (WST-8), MOLM-13", "type": "cell-based", "settings": "Homo sapiens, MOLM-13, 96 h, read-out: MOLM-13 IC50 (μM)", "units": {"IC50": "µM"}, "description": "To assess cell viability, MOLM-13 leukemia cells carrying MLL-AF9 fusion, MV4;11 leukemia cells carrying MLL-AF4 fusion or HL-60 leukemia cells carrying no MLL fusion were seeded 1×10^4 cell/well in 96-well plates and treated with an inhibitor for 4 days at different concentrations, in culture media containing 0.2% DMSO as the final concentration. Cell viability was determined using the WST-8 cell proliferation assay kit (Dojindo Molecular Technologies) according to manufacturer's instructions. Three independent experiments in triplicates were performed.", "values": [
      {"smiles": "CC[C@@H]1NC(=O)[C@H](CCCN/C(N)=N/CC(F)(F)F)NC(=O)[C@](C)(NC(=O)C(C)C)CCNC(=O)[C@@H](c2ccccc2)NC1=O", "note": "[Cpd. No. 22, N-((3R,6S,9S,12R)-6-ethyl-12-methyl-2,5,8,11-tetraoxo-3-phenyl-9-(3-((E)-2-(2,2,2-trifluoroethyl)guanidino)propyl)-1,4,7,10-tetraazacyclotetradecan-12-yl)isobutyramide]", "IC50": "> 10"},
      {"smiles": "CC[C@@H]1NC(=O)[C@H](CCCNC(=N)N)NC(=O)[C@](C)(NC(=O)C(C)C)CCNC(=O)[C@@H](CC2CCCCC2)NC1=O", "note": "[Cpd. No. 52, N-((3R,6S,9S,12R)-3-(cyclohexylmethyl)-6-ethyl-9-(3-guanidinopropyl)-12-methyl-2,5,8,11-tetraoxo-1,4,7,10-tetraazacyclotetradecan-12-yl)isobutyramide] (Isobutyryl-[dαMeDab]R[Abu][dCha]; lactam 1-C)", "IC50": 1.49},
      {"smiles": "CCCNC(=N)NCCC[C@@H]1NC(=O)[C@](C)(NC(=O)C(C)C)CCNC(=O)[C@@H](CC2CCCCC2)NC(=O)[C@H](CC)NC1=O", "note": "[Cpd. No. 46, N-((3R,6S,9S,12R)-3-(cyclohexylmethyl)-6-ethyl-12-methyl-2,5,8,11-tetraoxo-9-(3-(3-propylguanidino)propyl)-1,4,7,10-tetraazacyclotetradecan-12-yl)isobutyramide] (Isobutyryl-[dαMeDab][Arg(ω-nPr)][Abu][dCha]; lactam 1-C)", "IC50": "> 10"},
      {"smiles": "CC[C@@H]1NC(=O)[C@H](CCCNC(=N)NN)NC(=O)[C@](C)(NC(=O)C(C)C)CCNC(=O)[C@@H](CC2CCCCC2)NC1=O", "note": "[Cpd. No. 34, N-((3R,6S,9S,12R)-3-(cyclohexylmethyl)-6-ethyl-9-(3-(hydrazinecarboximidamido)propyl)-12-methyl-2,5,8,11-tetraoxo-1,4,7,10-tetraazacyclotetradecan-12-yl)isobutyramide]", "IC50": "> 10"},
      {"smiles": "CC[C@@H]1NC(=O)[C@H](CCCNC2=NCC(C)CN2)NC(=O)[C@](C)(NC(=O)C(C)C)CCNC(=O)[C@@H](CC2CCCCC2)NC1=O", "note": "(stereo partly drawn) [Cpd. No. 97, N-((3R,6S,9S,12R)-3-(cyclohexylmethyl)-6-ethyl-12-methyl-9-(3-((5-methyl-1,4,5,6-tetrahydropyrimidin-2-yl)amino)propyl)-2,5,8,11-tetraoxo-1,4,7,10-tetraazacyclotetradecan-12-yl)isobutyramide]", "IC50": "> 10"},
      {"smiles": "CC[C@@H]1NC(=O)[C@H](CCCNC(=N)NC(=N)N)NC(=O)[C@](C)(NC(=O)C(C)C)CCNC(=O)[C@@H](CC2CCCCC2)NC1=O", "note": "[Cpd. No. 35, N-((3R,6S,9S,12R)-9-(3-(3-carbamimidoylguanidino)propyl)-3-(cyclohexylmethyl)-6-ethyl-12-methyl-2,5,8,11-tetraoxo-1,4,7,10-tetraazacyclotetradecan-12-yl)isobutyramide]", "IC50": "> 10"},
      {"smiles": "CC[C@@H]1NC(=O)[C@H](CCCNC(=N)N)NC(=O)[C@](C)(NC(=O)C(C)C)CCNC(=O)[C@@](C)(c2ccccc2)NC1=O", "note": "[Cpd. No. 78, N-((3R,6S,9S,12R)-6-ethyl-9-(3-guanidinopropyl)-3,12-dimethyl-2,5,8,11-tetraoxo-3-phenyl-1,4,7,10-tetraazacyclotetradecan-12-yl)isobutyramide]", "IC50": "> 10"}
    ]},
    {"test_system": "MOLM-13 leukemia cells carrying MLL-AF9 fusion", "test": "cell viability assay (WST-8), MOLM-13", "type": "cell-based", "settings": "Homo sapiens, MOLM-13, 96 h; Table 2A; 4 days treatment; read-out: MOLM-13 IC50", "units": {"IC50": "µM"}, "values": [
      {"smiles": "C=CC(=O)NCCC[C@@H]1NC(=O)[C@](C)(NC(=O)C(C)C)CCNC(=O)[C@@H](c2ccccc2)NC(=O)[C@H](CC)NC1=O", "note": "[Cpd. No. 23, N-(3-((5S,8R,13R)-5-ethyl-13-isobutyramido-13-methyl-3,6,9,14-tetraoxo-8-phenyl-1,4,7,10-tetraazacyclotetradecan-2-yl)propyl)acrylamide] (Isobutyryl-[dαMeDab][Orn](Acryloyl)[Abu][dPhg]; lactam 1-C)", "IC50": "> 10"}
    ]}
  ]
}
